Results reported in PubChem BioAssay (NCI).
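Cultured in 96-well plates, cells were exposed to test compound for 48 hours across five concentrations. The concentration for 50% growth inhibition is given as GI50. TGI is the concentration that stops growth completely.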

Legend:
Assay in all cases: DTP human tumour cell line panel, 48 h
786-0 renal = system: 786-0 renal
A498 renal = system: A498 renal
A549 NSCLC = system: A549 NSCLC
ACHN renal = system: ACHN renal
BT-549 breast = system: BT-549 breast
CAKI-1 renal = system: CAKI-1 renal
CCRF-CEM leukemia = system: CCRF-CEM leukemia
COLO 205 colon = system: COLO 205 colon
DU-145 prostate = system: DU-145 prostate
EKVX NSCLC = system: EKVX NSCLC
HCC-2998 colon = system: HCC-2998 colon
HCT-116 colon = system: HCT-116 colon
HCT-15 colon = system: HCT-15 colon
HL-60(TB) leukemia = system: HL-60(TB) leukemia
HOP-62 NSCLC = system: HOP-62 NSCLC
HOP-92 NSCLC = system: HOP-92 NSCLC
HS 578T breast = system: HS 578T breast
HT29 colon = system: HT29 colon
IGROV1 ovarian = system: IGROV1 ovarian
K-562 leukemia = system: K-562 leukemia
KM12 colon = system: KM12 colon
M14 melanoma = system: M14 melanoma
MALME-3M melanoma = system: MALME-3M melanoma
MCF7 breast = system: MCF7 breast
MDA-MB-231 breast = system: MDA-MB-231 breast
MDA-MB-435 = system: MDA-MB-435
MOLT-4 leukemia = system: MOLT-4 leukemia
NCI-H226 lung = system: NCI-H226 lung
NCI-H23 lung = system: NCI-H23 lung
NCI-H460 lung = system: NCI-H460 lung
NCI-H522 lung = system: NCI-H522 lung
NCI/ADR-RES ovarian = system: NCI/ADR-RES ovarian
OVCAR-3 ovarian = system: OVCAR-3 ovarian
OVCAR-4 ovarian = system: OVCAR-4 ovarian
OVCAR-5 ovarian = system: OVCAR-5 ovarian
OVCAR-8 ovarian = system: OVCAR-8 ovarian
PC-3 prostate = system: PC-3 prostate
RPMI-8226 leukemia = system: RPMI-8226 leukemia
RXF 393 renal = system: RXF 393 renal
SF-268 CNS = system: SF-268 CNS
SF-295 CNS = system: SF-295 CNS
SF-539 CNS = system: SF-539 CNS
SK-MEL-2 melanoma = system: SK-MEL-2 melanoma
SK-MEL-28 melanoma = system: SK-MEL-28 melanoma
SK-MEL-5 melanoma = system: SK-MEL-5 melanoma
SK-OV-3 ovarian = system: SK-OV-3 ovarian
SN12C renal = system: SN12C renal
SNB-19 CNS = system: SNB-19 CNS
SNB-75 CNS = system: SNB-75 CNS
SW-620 colon = system: SW-620 colon
T-47D breast = system: T-47D breast
TK-10 renal = system: TK-10 renal
U251 CNS = system: U251 CNS
UACC-257 melanoma = system: UACC-257 melanoma
UACC-62 melanoma = system: UACC-62 melanoma
UO-31 renal = system: UO-31 renal

Cn1cc(-c2cc3ncnc(Nc4ccc(NC(=O)Nc5cc(C(C)(C)C)on5)cc4)c3s2)cn1
GI50 (786-0 renal): 720 nM | TGI (786-0 renal): 8390 nM | GI50 (A498 renal): 390 nM | TGI (A498 renal): 5170 nM | GI50 (A549 NSCLC): 764 nM | TGI (A549 NSCLC): 39300 nM | GI50 (ACHN renal): 348 nM | TGI (ACHN renal): 13200 nM | GI50 (BT-549 breast): 835 nM | TGI (BT-549 breast): 4370 nM | GI50 (CAKI-1 renal): 170 nM | TGI (CAKI-1 renal): 13900 nM | GI50 (CCRF-CEM leukemia): 366 nM | TGI (CCRF-CEM leukemia): 2880 nM | GI50 (COLO 205 colon): 436 nM | TGI (COLO 205 colon): 6420 nM | GI50 (DU-145 prostate): 686 nM | TGI (DU-145 prostate): > 34900 nM | GI50 (EKVX NSCLC): 1750 nM | TGI (EKVX NSCLC): 15000 nM | GI50 (HCC-2998 colon): 2500 nM | TGI (HCC-2998 colon): 11000 nM | GI50 (HCT-116 colon): 377 nM | TGI (HCT-116 colon): 6160 nM | GI50 (HCT-15 colon): 490 nM | TGI (HCT-15 colon): > 28500 nM | GI50 (HL-60(TB) leukemia): 1100 nM | TGI (HL-60(TB) leukemia): 3510 nM | GI50 (HOP-62 NSCLC): 1870 nM | TGI (HOP-62 NSCLC): 35900 nM | GI50 (HOP-92 NSCLC): 1560 nM | TGI (HOP-92 NSCLC): 14900 nM | GI50 (HS 578T breast): 400 nM | TGI (HS 578T breast): 6550 nM | GI50 (HT29 colon): 631 nM | TGI (HT29 colon): 3570 nM | GI50 (IGROV1 ovarian): 363 nM | TGI (IGROV1 ovarian): 21300 nM | GI50 (K-562 leukemia): 295 nM | TGI (K-562 leukemia): > 100000 nM | GI50 (KM12 colon): 35.1 nM | TGI (KM12 colon): 18200 nM | GI50 (M14 melanoma): 244 nM | TGI (M14 melanoma): 4270 nM | GI50 (MALME-3M melanoma): 348 nM | TGI (MALME-3M melanoma): 3760 nM | GI50 (MCF7 breast): 933 nM | TGI (MCF7 breast): 4860 nM | GI50 (MDA-MB-231 breast): 1740 nM | TGI (MDA-MB-231 breast): 31700 nM | GI50 (MDA-MB-435): 600 nM | TGI (MDA-MB-435): 18100 nM | GI50 (MOLT-4 leukemia): 397 nM | GI50 (NCI-H226 lung): 517 nM | TGI (NCI-H226 lung): 19700 nM | GI50 (NCI-H23 lung): 764 nM | TGI (NCI-H23 lung): 6540 nM | GI50 (NCI-H460 lung): 296 nM | TGI (NCI-H460 lung): 23800 nM | GI50 (NCI-H522 lung): 916 nM | TGI (NCI-H522 lung): 5150 nM | GI50 (NCI/ADR-RES ovarian): 2950 nM | TGI (NCI/ADR-RES ovarian): > 44500 nM | GI50 (OVCAR-3 ovarian): 1970 nM | TGI (OVCAR-3 ovarian): 8440 nM | GI50 (OVCAR-4 ovarian): 619 nM | TGI (OVCAR-4 ovarian): > 56700 nM | GI50 (OVCAR-5 ovarian): 3490 nM | TGI (OVCAR-5 ovarian): 21000 nM | GI50 (OVCAR-8 ovarian): 864 nM | TGI (OVCAR-8 ovarian): > 100000 nM | GI50 (PC-3 prostate): 791 nM | TGI (PC-3 prostate): 13700 nM | GI50 (RPMI-8226 leukemia): 441 nM | TGI (RPMI-8226 leukemia): 2470 nM | GI50 (RXF 393 renal): 307 nM | TGI (RXF 393 renal): 1550 nM | GI50 (SF-268 CNS): 1360 nM | TGI (SF-268 CNS): > 37200 nM | GI50 (SF-295 CNS): 552 nM | TGI (SF-295 CNS): 2220 nM | GI50 (SF-539 CNS): 216 nM | TGI (SF-539 CNS): 1870 nM | GI50 (SK-MEL-2 melanoma): 390 nM | TGI (SK-MEL-2 melanoma): 2470 nM | GI50 (SK-MEL-28 melanoma): 1060 nM | TGI (SK-MEL-28 melanoma): 10500 nM | GI50 (SK-MEL-5 melanoma): 904 nM | TGI (SK-MEL-5 melanoma): 2860 nM | GI50 (SK-OV-3 ovarian): 314 nM | TGI (SK-OV-3 ovarian): 16300 nM | GI50 (SN12C renal): 379 nM | TGI (SN12C renal): 28900 nM | GI50 (SNB-19 CNS): 3740 nM | TGI (SNB-19 CNS): > 38300 nM | GI50 (SNB-75 CNS): 182 nM | TGI (SNB-75 CNS): 4430 nM | GI50 (SW-620 colon): 994 nM | TGI (SW-620 colon): > 35600 nM | GI50 (T-47D breast): 513 nM | TGI (T-47D breast): > 29000 nM | GI50 (TK-10 renal): 2980 nM | TGI (TK-10 renal): 17700 nM | GI50 (U251 CNS): 1450 nM | TGI (U251 CNS): > 40300 nM | GI50 (UACC-257 melanoma): 2120 nM | TGI (UACC-257 melanoma): 14700 nM | GI50 (UACC-62 melanoma): 498 nM | TGI (UACC-62 melanoma): 8810 nM | GI50 (UO-31 renal): 320 nM | TGI (UO-31 renal): 9340 nM
